Values after ≈ are worked out from the molar mass of the structure shown. Counter-ions that a name gives are not always drawn. Like-named read-outs stand apart in the source and are kept apart here.
Assays:
[1] = test system: animal models of asthma; conditions: in vivo; cited from earlier work
[2] = test system: moderate persistent asthma; conditions: Barnes et al., European Respiratory Journal 34, suppl. 53, 2009; cited from earlier work
[3] = Solubility in aqueous solutions (Example 10); type: physicochemical; conditions: for Solubility in water: Table 12; for solubility: thermodynamic from solid, read-out: Compound 1 Solubility; for Increase in water solubility: relative to Compound 1 as-received (0.0006 mg/mL)
Protocol: Crystalline and amorphous Compound 1/polymer formulation solubility was determined in different aqueous media (Tables 8A and 8B).
As mentioned earlier, the high solubility of the Compound 1 sodium salt most probably resulted from the conversion of the Compound 1 to its ionized form. In relation to crystalline Compound 1 (as-received sample), formulations containing amorphous form (Tables 11A and 11B) were more soluble than crystalline form under all studied conditions.

[4] = Solubility in USP simulated gastric and intestinal fluids (Example 11); type: physicochemical; conditions: SGF pH 1.2 and SIF pH 6.8, 37° C.
Protocol: The solubilization profile was obtained of various compositions in USP Simulated Gastric Fluid (SGF) and USP Simulated Intestinal Fluid (SIF) with pH 1.2 and 6.8, respectively. […] The concentration of the solution was based on the hypothesis that the test should simulate a dissolution test for a 100 mg dose strength tablet or capsule in 900 ml of dissolution media.
The solubility was tested for the crystalline compound 1 with a purity of 98.9%, and for the amorphous compositions of Examples 6M and 6O (Lots 031 and 033). The following procedure was followed: • A shaking water bath was filled and water temperature left to equilibrate to 37° C. for 24 hours. • USP simulated gastric fluid was prepared as described in the UPS 31, Solutions: Test solutions. • USP simulated intestinal fluid was prepared as described in the UPS 31, Solutions: Test solutions. • The equivalent of 12.5 mg of Compound 1 was weighed and transferred into a 125 mL Erlenmeyer flask, with 100 mL of medium. […]
The amount of dissolved material was determined with respect to a standard and is reported as the percentage of material dissolved with respect to the standard as well as in absolute mg/ml.

[5] = Solubility screening in solvents (Example 2); type: physicochemical; conditions: thermodynamic from solid, read-out: Compound 1 Solubility; for solubility at 12 h: 12 h room temperature
Protocol: Before carrying out spray drying experiments, a solvent screening was performed to determine potential solvent that will allow sufficient concentration of Compound 1 in spray drying solution. Approximately 50 mg of Compound 1 was added to 100 mL of each evaluated solvent until visual observation of solution saturation. […]

Q: Which “efficacy in animal models of asthma” value [1] does the source give for `Cc1c(Cc2ccc3ccccc3n2)c2cc(F)ccc2n1CC(=O)O` [Compound 1, (5-Fluoro-2-methyl-3-quinolin-2-ylmethyl-indol-1-yl)-acetic acid] here?
A: effective

Q: And the “efficacy in a clinical trial with human asthma patients” value [2]?
A: effective

Q: And the Solubility in water [3]?
A: 0.6 µg/mL (≈ 1.72 µM)

Q: What about the “Compound 1 Solubility” value ([3]; Water) of the same molecule?
A: 0.6 µg/mL

Q: And the solubility ([3]; aqueous medium pH 1.0, pH 1, simulated gastric fluid, pH 1.0)?
A: 2.1 µg/mL (≈ 6.03 µM)

Q: And the “Compound 1 Solubility” value ([3]; pH 4.5)?
A: 1.9 µg/mL

Q: And the “Compound 1 Solubility” value ([3]; pH 6.8 K)?
A: 0.3 µg/mL

Q: And the “Compound 1 Solubility” value ([3]; pH 8.0 K)?
A: 0.8 µg/mL

Q: And the “Compound 1 Solubility” value ([3]; pH 8.0 Na)?
A: 0.3 µg/mL

Q: And the “solubility in SGF and SIF” value [4]?
A: very poor solubility

Q: And the solubility ([5]; aqueous buffer, Sodium hydroxide 0.5N, at 45° C.)?
A: > 90000 µg/mL

Q: And the solubility at 12 h ([5]; aqueous buffer, Tris(hydroxymethyl) aminoethane (1% w/v))?
A: < 500 µg/mL

Q: What about the solubility at 12 h ([5]; aqueous with cosolvent or surfactant or cyclodextrin, DMSO/H2O (50/50 v/v)) of the same molecule?
A: < 500 µg/mL

Q: And the solubility at 12 h ([5]; aqueous with cosolvent or surfactant or cyclodextrin, DMSO/H2O (75/25 v/v))?
A: 2000 to 2500 µg/mL (≈ 5740 to 7180 µM)

Q: And the solubility at 12 h ([5]; aqueous with cosolvent or surfactant or cyclodextrin, Hexadecyltrimethylammonium (0.05% w/v))?
A: < 500 µg/mL

Q: What about the solubility at 12 h ([5]; aqueous with cosolvent or surfactant or cyclodextrin, Sodium dodecyl sulfate (2% w/v)) of the same molecule?
A: < 500 µg/mL

Q: And the solubility at 12 h ([5]; aqueous with cosolvent or surfactant or cyclodextrin, Span 80 (1% v/v))?
A: < 500 µg/mL

Q: What about the solubility at 12 h ([5]; aqueous with cosolvent or surfactant or cyclodextrin, Tween 80 (1% v/v)) of the same molecule?
A: < 500 µg/mL

Q: What about the solubility at 12 h ([5]; organic solvent or mixture, Carbon tetrachloride) of the same molecule?
A: < 500 µg/mL

Q: And the solubility at 12 h ([5]; organic solvent or mixture, Chloroform)?
A: < 500 µg/mL

Q: What about the solubility at 12 h ([5]; organic solvent or mixture, DMSO/DCM (50/50 v/v)) of the same molecule?
A: 1000 to 1500 µg/mL (≈ 2870 to 4310 µM)

Q: And the solubility at 12 h ([5]; organic solvent or mixture, DMSO/DCM (75/25 v/v))?
A: 2500 to 3000 µg/mL (≈ 7180 to 8610 µM)

Q: What about the solubility at 12 h ([5]; organic solvent or mixture, DMSO/Ethanol (50/50 v/v)) of the same molecule?
A: 500 to 1000 µg/mL (≈ 1440 to 2870 µM)

Q: And the solubility at 12 h ([5]; organic solvent or mixture, DMSO/Ethanol (75/25 v/v))?
A: 500 to 1000 µg/mL (≈ 1440 to 2870 µM)

Q: What about the solubility at 12 h ([5]; organic solvent or mixture, Dichloromethane (DCM)) of the same molecule?
A: < 500 µg/mL

Q: What about the solubility at 12 h ([5]; organic solvent or mixture, Dimethyl sulfoxide (DMSO)) of the same molecule?
A: 5500 to 6000 µg/mL (≈ 15800 to 17200 µM)

Q: What about the solubility at 12 h ([5]; organic solvent or mixture, Toluene) of the same molecule?
A: < 500 µg/mL

Q: What about the solubility at 12 h ([5]; Purified water) of the same molecule?
A: < 500 µg/mL

Q: Which results are given for `Cc1c(Cc2ccc3ccccc3n2)c2cc(F)ccc2n1CC(=O)O` [Compound 1 sodium salt]?
A: Solubility in water [3]: 15370 µg/mL; Compound 1 Solubility ([3]; Water): 15370 µg/mL; solubility ([3]; Water + 1% SDS, aqueous with cosolvent or surfactant or cyclodextrin, Water + 1% SDS): > 30000 µg/mL; solubility ([3]; Water + 1% Tween 20, aqueous with cosolvent or surfactant or cyclodextrin, Water + 1% Tween 20): > 26000 µg/mL; solubility ([3]; Water + 1% Tween 80, aqueous with cosolvent or surfactant or cyclodextrin, Water + 1% Tween 80): > 21000 µg/mL; Compound 1 Solubility ([3]; pH 1.0): 3.6 µg/mL; Compound 1 Solubility ([3]; pH 4.5): 2605 µg/mL; solubility ([3]; pH 6.8 + 1% HTAB, pH 6.8, aqueous with cosolvent or surfactant or cyclodextrin, pH 6.8 + 1% HTAB): 4110 µg/mL; solubility ([3]; pH 6.8 + 1% Tween 20, pH 6.8, aqueous with cosolvent or surfactant or cyclodextrin, pH 6.8 + 1% Tween 20): 128 µg/mL; solubility ([3]; pH 6.8 + 1% Tween 80, pH 6.8, aqueous with cosolvent or surfactant or cyclodextrin, pH 6.8 + 1% Tween 80): 3220 µg/mL; Compound 1 Solubility ([3]; pH 6.8 K): 8554 µg/mL; solubility ([3]; pH 6.8 Na (sodium buffer), pH 6.8, aqueous buffer, pH 6.8 Na): 2490 µg/mL; Compound 1 Solubility ([3]; pH 8.0 K): 5571 µg/mL; Compound 1 Solubility ([3]; pH 8.0 Na): 1744 µg/mL; Increase in water solubility [3]: 2561667%

Q: What does the source list for `Cc1c(Cc2ccc3ccccc3n2)c2cc(F)ccc2n1CC(=O)[O-].[Na+]` [Lot 002]?
A: Solubility in water [3]: 16870 µg/mL; Compound 1 Solubility ([3]; Water): 16870 µg/mL; Compound 1 Solubility ([3]; Water + 1% SDS): >17000 µg/mL; Compound 1 Solubility ([3]; Water + 1% Tween 20): >22000 µg/mL; Compound 1 Solubility ([3]; Water + 1% Tween 80): >14000 µg/mL; Compound 1 Solubility ([3]; pH 1.0): 9.1 µg/mL; Compound 1 Solubility ([3]; pH 4.5): 5 µg/mL; Compound 1 Solubility ([3]; pH 6.8 + 1% HTAB): 3597 µg/mL; Compound 1 Solubility ([3]; pH 6.8 + 1% Tween 20): 162.3 µg/mL; Compound 1 Solubility ([3]; pH 6.8 + 1% Tween 80): 226 µg/mL; Compound 1 Solubility ([3]; pH 6.8 K): 0.2 µg/mL; Compound 1 Solubility ([3]; pH 6.8 Na): 0.6 µg/mL; Compound 1 Solubility ([3]; pH 8.0 K): 2740 µg/mL; Compound 1 Solubility ([3]; pH 8.0 Na): 1782 µg/mL; Increase in water solubility [3]: 2811667%
